Where two headings read alike, the source gives them in different places.
How the values were obtained:
LLhP [1] = settings: read-out: Operator capture by LLhP and variants (× 10^-7 M hypoxanthine), lacO^disC; [co-repressor]mid; SD, n = 3
I48S [2] = settings: read-out: Operator capture by LLhP and variants (× 10^-7 M hypoxanthine), lacO^1; [co-repressor]mid; SD, n = 3
S61C [3] = settings: read-out: Operator capture by LLhP and variants (× 10^-7 M hypoxanthine), lacO^1; [co-repressor]mid; SD, n = 3
Q55V [4] = settings: read-out: Operator capture by LLhP and variants (× 10^-7 M hypoxanthine), lacO^1; [co-repressor]mid; SD, n = 3
S61M [5] = settings: read-out: Operator capture by LLhP and variants (× 10^-7 M hypoxanthine), lacO^disC; [co-repressor]mid; SD, n = 3
Q55V [6] = settings: read-out: Operator capture by LLhP and variants (× 10^-7 M hypoxanthine), lacO^disC; [co-repressor]mid; SD, n = 3
LLhP [7] = settings: read-out: Operator capture by LLhP and variants (× 10^-7 M hypoxanthine), lacO^sym; [co-repressor]mid; SD, n = 3
Q55T [8] = settings: read-out: Operator capture by LLhP and variants (× 10^-7 M hypoxanthine), lacO^sym; [co-repressor]mid; SD, n = 3
I48S [9] = settings: read-out: Operator capture by LLhP and variants (× 10^-7 M hypoxanthine), lacO^sym; [co-repressor]mid; SD, n = 3
S61M [10] = settings: read-out: Operator capture by LLhP and variants (× 10^-7 M hypoxanthine), lacO^1; [co-repressor]mid; SD, n = 3
LLhP [11] = settings: read-out: Operator capture by LLhP and variants (× 10^-7 M hypoxanthine), lacO^1; [co-repressor]mid; SD, n = 3
I48V [12] = settings: read-out: Operator capture by LLhP and variants (× 10^-7 M hypoxanthine), lacO^disC; [co-repressor]mid; SD, n = 3
I48V [13] = settings: read-out: Operator capture by LLhP and variants (× 10^-7 M hypoxanthine), lacO^sym; [co-repressor]mid; SD, n = 3
I48S [14] = settings: read-out: Operator capture by LLhP and variants (× 10^-7 M hypoxanthine), lacO^disC; [co-repressor]mid; SD, n = 3
Q55V [15] = settings: read-out: Operator capture by LLhP and variants (× 10^-7 M hypoxanthine), lacO^sym; [co-repressor]mid; SD, n = 3
I48V [16] = settings: read-out: Operator capture by LLhP and variants (× 10^-7 M hypoxanthine), lacO^1; [co-repressor]mid; SD, n = 3
Q55T [17] = settings: read-out: Operator capture by LLhP and variants (× 10^-7 M hypoxanthine), lacO^disC; [co-repressor]mid; SD, n = 3
S61C [18] = settings: read-out: Operator capture by LLhP and variants (× 10^-7 M hypoxanthine), lacO^disC; [co-repressor]mid; SD, n = 3
Q55T [19] = settings: read-out: Operator capture by LLhP and variants (× 10^-7 M hypoxanthine), lacO^1; [co-repressor]mid; SD, n = 3
lacO^disC operator DNA = experiment: Nitrocellulose filter binding, DNA-binding affinity for lacO^disC; settings: LLhP+HX compared with LacI without inducer
lacO^1 operator DNA = experiment: Operator capture experiment with lacO^1; format: binding, E. coli; settings: curves super-imposable for three different operator sequences
lacO^sym operator DNA = settings: LacI without inducer; cited from earlier work

O=c1[nH]cnc2[nH]cnc12 [hypoxanthine, hypoxanthine (HX)]
EC50 (LLhP [1]): 370 ± 80 nM | EC50 (I48S [2]): 950 ± 70 nM | EC50 (S61C [3]): 4700 ± 410 nM | EC50 (Q55V [4]): 1000 ± 130 nM | EC50 (S61M [5]): 11700 ± 1200 nM | EC50 (Q55V [6]): 2200 ± 80 nM | EC50 (LLhP [7]): 550 ± 230 nM | EC50 (Q55T [8]): 430 ± 40 nM | EC50 (I48S [9]): 670 ± 60 nM | EC50 (S61M [10]): 5900 ± 340 nM | EC50 (LLhP [11]): 410 ± 70 nM | EC50 (I48V [12]): 3300 ± 160 nM | EC50 (I48V [13]): 570 ± 50 nM | EC50 (I48S [14]): 1600 ± 180 nM | EC50 (Q55V [15]): 850 ± 60 nM | EC50 (I48V [16]): 880 ± 60 nM | EC50 (Q55T [17]): 2100 ± 160 nM | EC50 (S61C [18]): 8000 ± 270 nM | EC50 (Q55T [19]): 1000 ± 80 nM

B1: LLhP: chimeric repressor: LacI DNA-binding domain, LacI linker and PurR regulatory domain; homodimer (protein)
chain: MKPVTLYDVAEYAGVSYQTVSRVVNQASHVSAKTREKVEAAMAELNYIPNRVAQQLAGKQSLLIGVATSSLALHAPSQIVAAIKSRADQLGASVVVSMVERSGVEACKAAVHNLLAQRVSGLIINYPLDDQDAIAVEAACTNVPALFLDVSDQTPINSIIFSHEDGTRLGVEHLVALGHQQIALLAGPLSSVSARLRLAGWHKYLTRNQIQPIAEREGDWSAMSGFQQTMQMLNEGIVPTAMLVANDQMALGAMRAITESGLRVGADISVVGYDDTEDSSCYIPPLTTIKQDFRLLGQTSVDRLLQLSQGQAVKGNQLLPVSLVKRKTTLAPNATIKDVAKRANVSTTTVSHVINKTRFVAEETRNAVWAAIKELHYSPSAVARSLKVNHTKSIGLLATSSEAAYFAEIIEAVEKNCFQKGYTLILGNAWNNLEKQRAYLSMMAQKRVDGLLVMCSEYPEPLLAMLEEYRHIPMVVMDWGEAKADFTDAVIDNAFEGGYMAGRYLIERGHREIGVIPGPLERNTGAGRLAGFMKAMEEAMIKVPESWIVQGDFEPESGYRAMQQILSQPHRPTAVFCGGDIMAMGALCAADEMGLRVPQDVSLIGYDNVRNARYFTPALTTIHQPKDSLGETAFNMLLDRIVNKREEPQSIEVHPRLIERRSVADGPFRDYRR
Tighter binding of lacO^disC than LacI (lacO^disC operator DNA): ~30 fold | Operator capture mid-point (lacO^1 operator DNA): around 4.4 × 10 ^−7 M hypoxanthine

B2: LacI: lactose repressor protein, naturally-occurring LacI/GalR homologue used for comparison (protein, UniProt P03023 1-360, looked up)
Lactose operon repressor: MKPVTLYDVAEYAGVSYQTVSRVVNQASHVSAKTREKVEAAMAELNYIPNRVAQQLAGKQSLLIGVATSSLALHAPSQIVAAIKSRADQLGASVVVSMVERSGVEACKAAVHNLLAQRVSGLIINYPLDDQDAIAVEAACTNVPALFLDVSDQTPINSIIFSHEDGTRLGVEHLVALGHQQIALLAGPLSSVSARLRLAGWHKYLTRNQIQPIAEREGDWSAMSGFQQTMQMLNEGIVPTAMLVANDQMALGAMRAITESGLRVGADISVVGYDDTEDSSCYIPPLTTIKQDFRLLGQTSVDRLLQLSQGQAVKGNQLLPVSLVKRKTTLAPNTQTASPRALADSLMQLARQVSRLESGQ
Tighter binding of lacO^sym than lacO^1 (lacO^sym operator DNA): ~10 fold

Source: paper PMC2561905 (Biochemistry, 2008)
